# Data reported in patent EP0543245A1, “Renin inhibiting amino acid derivatives” (F. HOFFMANN-LA ROCHE AG, priority 1991, dated 1993).
# Molecular target: T1, Human-Renin (Homo sapiens, UniProt P00797)
# T1 sequence (P00797 67-406): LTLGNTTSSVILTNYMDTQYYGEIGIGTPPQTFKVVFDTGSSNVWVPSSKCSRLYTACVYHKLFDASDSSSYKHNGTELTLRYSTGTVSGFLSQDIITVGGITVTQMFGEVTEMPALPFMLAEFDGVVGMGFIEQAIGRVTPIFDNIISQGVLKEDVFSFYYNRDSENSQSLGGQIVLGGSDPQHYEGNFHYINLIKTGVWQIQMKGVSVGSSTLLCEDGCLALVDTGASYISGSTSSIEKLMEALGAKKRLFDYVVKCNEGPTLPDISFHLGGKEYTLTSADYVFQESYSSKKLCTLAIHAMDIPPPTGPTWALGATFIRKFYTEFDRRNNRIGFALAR
# Experiment: In vitro test with pure human renin
# Assay type: biochemical
# Conditions: human tetradecapeptide renin substrate (hTD), pH 7.4, 3 h at 37°C vs 4°C, angiotensin I measured by RIA, read-out: IC₅₀-Werte
# Experimental: In vitro-Test mit reinem Human-Renin
# Der Test wird in Eppendorf Röhrchen durchgeführt. Die Inkubationsmischung besteht aus (1) 100 µl Human-Renin in Puffer A (0,1M Natriumphosphatlösung, pH 7.4, enthaltend 0,1% Rinderserumalbumin, 0,1% Natriumazid und 1 mM Aethylendiamintetraessigsäure), genügend für eine Renin-Aktivität von 2-3 ng Angiotensin I/ ml/Std.; (2) 145 µl Puffer A; (3) 30 µl von 10 µM humanem Tetradekapeptid-Reninsubstrat (hTD) in 10 mM Salzsäure; (4) 15 µl Dimethylsulfoxid mit bzw. ohne Hemmer und (5) 10 µl einer 0,03 molaren Lösung von Hydroxychinolinsulfat in Wasser.
# Die Proben werden drei Stunden bei 37°C bzw. 4°C in Triplikaten inkubiert. 2 x 100 µl Proben pro Versuchsröhrchen werden dann verwendet, um die Produktion von Angiotensin I via RIA (standard radioimmunoassay; Clinical Assay solid phase kit) zu messen. Kreuzreaktivitäten der verwendeten Antikörper im RIA sind: Angiotensin I 100%; Angiotensin II 0,0013%; hTD (Angiotensin I-Val-Ile-His-Ser-OH) 0,09%. Die Produktion von Angiotensin I wird durch die Differenz zwischen dem Versuch bei 37°C und demjenigen bei 4°C bestimmt.
# Folgende Kontrollen werden mitgeführt: • (a) Inkubation von hTD-Proben ohne Renin und ohne Hemmer bei 37°C und 4°C. Die Differenz zwischen diesen beiden Werten ergibt den Grundwert der Angiotensin I-Produktion. • (b) Inkubation von hTD-Proben mit Renin, jedoch ohne Hemmer bei 37°C und 4°C. Die Differenz zwischen diesen Werten ergibt den Maximalwert der Angiotensin I-Produktion.
# In jeder Probe wird von der ermittelten Angiotenin I-Produktion der Grundwert der Angiotensin I-Produktion abgezogen. Die Differenz zwischen dem Maximalwert und dem Grundwert ergibt den Wert der maximalen Substrathydrolyse (=100%) durch Renin.
# Die Resultate werden als IC₅₀-Werte angegeben, welche diejenige Konzentration des Hemmers bezeichnen, bei welcher die enzymatische Aktivität um 50% gehemmt wird. Die IC₅₀-Werte werden aus einer linearen Regressionskurve aus einem logit-log plot ermittelt.
row,IC50 [nM],Structure (SMILES)
1,51,"O=C(N[C@@H](CC1CCCCC1)[C@@H](O)[C@@H](O)C1CC1)C(Cc1cccnc1)c1nnc2c(C3CC3)nc(-c3cccnc3)cn12 (single isomer, unassigned) [A]"
2,150,"CC(C)Cc1nc(-c2cccnc2)nn2c(C(Cc3cccnc3)C(=O)N[C@@H](CC3CCCCC3)[C@@H](O)[C@@H](O)C3CC3)nnc12 (single isomer, unassigned) [F]"
3,2.3,"O=C(N[C@@H](CC1CCCCC1)[C@@H](O)[C@@H](O)C1CC1)C(Cc1cscn1)c1nnc2c(CC3CC3)nc(-c3cccnc3)cn12 (single isomer, unassigned) [D]"
4,17,"O=C(N[C@@H](CC1CCCCC1)[C@@H](O)[C@@H](O)C1CC1)C(Cc1cccnc1)c1nnc2c(CC3CC3)nc(-c3cccnc3)cn12 (single isomer, unassigned) [C]"
5,2,"O=C(N[C@@H](CC1CCCCC1)[C@@H](O)[C@@H](O)C1CC1)C(Cc1cscn1)c1nnc2c(C3CC3)nc(-c3cccnc3)cn12 (single isomer, unassigned) [B]"
6,16,"C=CCC(C(=O)N[C@@H](CC1CCCCC1)[C@@H](O)[C@@H](O)C1CC1)c1nnc2c(CCC)nc(-c3cccnc3)cn12 (stereo partly drawn) [G, (R,S)-α-Allyl-N-[(1S,2R,3S)-1-(cyclohexylmethyl)3-cyclopropyl-2,3-dihydroxypropyl]-8-propyl-6-(3-pyridyl)-s-triazolo[4,3-a]pyrazin-3-acetamid]"
7,100,"O=C(N[C@@H](Cc1ccccc1)[C@@H](O)[C@@H](O)C1CC1)C(Cc1cccnc1)c1nnc2c(C3CC3)nc(-c3cccnc3)cn12 (stereo partly drawn) [E, (R,S)-N-[(1S,2R,3S)-1-Benzyl-3-cyclopropyl-2,3-dihydroxypropyl]-8-cyclopropyl-6-(3-pyridyl)-α-(3-pyridylmethyl)-s-triazolo[4,3-a]pyrazin-3-acetamid]"
